Measurements as given in patent US20140147411A1, “METHODS OF TREATING CANCER AND TESTING MUTATION ZYGOSITY RELATED THERETO” (U.S. GOVERNMENT represented by the UNITED STATES DEPARTMENT …, priority 2012, published 2014).

Legend:
[1] = test system: AKT (serine 473); assay: AKT phosphorylation in the melanoma cell model system; type: cell-based; details: BEZ235
[2] = test system: melanoma cell lines; assay: MHC induction by IFN-γ with PI3K/mTOR inhibitor in melanoma cell lines, flow cytometry; details: BEZ235 0.5 μM, MHC class I and class II, melanoma cell lines of FIG. 4
Procedure: Fold induction of cell surface MHC class I was calculated by dividing averaged MFI values for cells treated as indicated along the x-axis by averaged MFI values of cells treated with vehicle (DMSO) alone. […] MHC class I and class II levels were assessed as in part A.
BEZ235 a dual PI3K/mammalian target of rapamycin inhibitor was used.

[3] = test system: phospho-ERK (Thr 202/Tyr 204); assay: ERK phosphorylation by western blot in A375 cells; type: cell-based; details: 10 μM PLX4720, western blot, 24 hours
Procedure: A representative western blot is shown. A375 cells were pre-treated with vehicle (DMSO) or 10 μM of PLX4720 60 minutes prior to the addition of IFN-γ (100 U/ml). Whole cell lysates were prepared 24 hours later and levels of phospho-ERK (Thr 202/Tyr 204) and total ERK protein were analyzed by western blot. […] The error bars represent the SEM.
A representative western blot is shown. […] Cell lysates were prepared 72 hours later and levels of total ERK and phospho-ERK (Thr 202/Tyr 204) protein analyzed by western blot. […] GAPDH levels are shown as a loading control. […] Control cells were treated only with vehicle (DMSO).

[4] = test system: A375 melanoma cells; assay: Cell surface MHC class I, B2M and MHC class II by flow cytometry in A375 cells after interferon
Procedure: A representative western blot is shown. A375 cells were pre-treated with vehicle (DMSO) or 10 μM of PLX4720 60 minutes prior to the addition of IFN-γ (100 U/ml). Whole cell lysates were prepared 24 hours later and levels of phospho-ERK (Thr 202/Tyr 204) and total ERK protein were analyzed by western blot. B, A representative flow cytometry histogram is shown. A375 cells were pre-treated with vehicle (DMSO, black line, unfilled) or 10 μM PLX4720 (black dotted line) for 60 minutes prior to the addition of IFN-γ (10 U/ml). Control cells were left untreated (gray filled). Cell surface MHC class I was analyzed using flow cytometry 72 hours later using an antibody that recognizes a shared epitope on HLA-A, B and C molecules. Cells stained with an isotype control antibody are shown (black filled). C, Averaged mean fluorescence intensity (MFI) from three independent flow cytometry experiments is shown (y-axis) and treatments are indicated along the x-axis. The error bars represent the SEM. (*, p<0.05; two-tailed paired Student's t test, as compared to cells treated with IFN-γ and pre-treated with DMSO).
A representative western blot is shown. […] Cell lysates were prepared 72 hours later and levels of total ERK and phospho-ERK (Thr 202/Tyr 204) protein analyzed by western blot. […] Cell surface MHC class I (HLA-A, B, C), B2M, and MHC class II (HLA-DR) levels were analyzed 72 hours later using flow cytometry. Values represent the average mean fluorescence intensity (MFI) for three independent experiments and error bars represent the SEM. […] GAPDH levels are shown as a loading control. D, Induction of HLA-A, HLA-DR, CIITA and NLRC5 mRNA in A375 cells. […] Control cells were treated only with vehicle (DMSO). Steady state mRNA levels were measured using quantitative real-time RT-PCR 72 hours later and are expressed as fold over vehicle (DMSO) treated cells. Error bars represent SEM from at least 3 independent experiments. (*, p<0.05, **, p<0.01, 2-tailed paired Student's t test, as compared to cells treated with IFN-γ and pre-treated with DMSO)
Error bars represent the SEM. […] Flow cytometry was used to select transfected (GFP positive) and non-transfected (GFP negative) cells and MHC class I levels were measured on these two cell populations. Average values from three independent experiments are shown. MHC class I levels are expressed as the % of MHC class I on control cells (cells non-transfected using the empty vector plasmid). […] Cells stained with an isotype control antibody are shown in black filled.

[5] = test system: CIITA mRNA; details: SKMEL-28 cells, vemurafenib 0.5 μM, IFN-γ 20 U/ml
Procedure: (§1) Cell surface MHC class I (HLA-A, B and C, top panels) and MHC class II (HLA-DR, lower panels) levels were measured 72 hours later using flow cytometry. […] Fold induction of cell surface MHC class I was calculated by dividing averaged MFI values for cells treated as indicated along the x-axis by averaged MFI values of cells treated with vehicle (DMSO) alone. Fold inductions for heterozygous cell lines (MALME-3M, SKMEL-3, and SKMEL-5) were averaged together (gray bars) as were the fold inductions for three homozygous (white bars) cell lines (A375, HT-144, and SKMEL-28). […] The DMSO-treated cells (gray diamonds) from part A are compared to those treated with BEZ235 (0.5 μM, black squares). MHC class I and class II levels were assessed as in part A.

[6] = test system: SKMEL-3 cells; assay: Cell surface MHC by flow cytometry in SKMEL-3 cells after IFN-γ; details: SKMEL3 cells (heterozygous for BRAFV600E), vemurafenib 0.5 μM, 72 hours
Procedure: as §1

[7] = test system: SKMEL-5 cells; assay: Cell surface MHC by flow cytometry in SKMEL-5 cells after IFN-γ; details: SKMEL5 cells (heterozygous for BRAFV600E), vemurafenib 0.5 μM, 72 hours
Procedure: as §1

[8] = test system: MALME-3M cells; assay: Cell surface MHC by flow cytometry in MALME-3M cells after IFN-γ; details: MALME-3M cells (heterozygous for BRAFV600E), vemurafenib 0.5 μM, 72 hours
Procedure: as §1

[9] = test system: SKMEL-2 (BRAF codon 600 wild-type) cells; assay: Cell surface MHC by flow cytometry in SKMEL-2 cells after IFN-γ
Procedure: Values represent the average mean fluorescence intensity (MFI) for three independent experiments and error bars represent the SEM. […] Control cells were treated only with vehicle (DMSO). […] Error bars represent SEM from at least 3 independent experiments.

[10] = test system: BRAFV600E homozygous cell lines (A375, HT-144, and SKMEL-28); assay: Fold MHC class I induction averaged over BRAFV600E homozygous cell lines; details: MFI over vehicle (DMSO) alone
Procedure: The y-axis represents average MFI for at least three independent experiments except those for MeWo and SKMEL-5 which are the average of two independent experiments. […] Fold induction of cell surface MHC class I was calculated by dividing averaged MFI values for cells treated as indicated along the x-axis by averaged MFI values of cells treated with vehicle (DMSO) alone. […] MHC class I and class II levels were assessed as in part A.

[11] = test system: BRAFV600E heterozygous cell lines (MALME-3M, SKMEL-3, and SKMEL-5); assay: Fold MHC class I induction averaged over BRAFV600E heterozygous cell lines; details: MFI over vehicle (DMSO) alone
Procedure: as §1

[12] = A375 cells, sorafenib 10 μM prior to IFN-γ 2000 U/ml, not statistically significant (ANOVA)

With `Cn1c(=O)n(-c2ccc(C(C)(C)C#N)cc2)c2c3cc(-c4cnc5ccccc5c4)ccc3ncc21` [BEZ235] the “phosphorylation of AKT (serine 473)” value [1] was “reduced the phosphorylation of AKT (serine 473)” and the “induction of MHC molecules by IFN-γ” value [2] was “did not enhance the induction of MHC molecules by IFN-γ, rather, it attenuated MHC induction in some of the cell lines examined”.

In the case of `CCCS(=O)(=O)Nc1ccc(F)c(C(=O)c2c[nH]c3ncc(Cl)cc23)c1F` [PLX4720], the “levels of ERK phosphorylation” value [3] is reported as “reduced levels of ERK phosphorylation” and the “induction of MHCI molecules by IFN-γ” value ([4]; A375 cells, 10 μM PLX4720 60 minutes prior to IFN-γ (10 U/ml), 72 hours) is reported as “enhanced the induction of MHCI molecules by IFN-γ”.

With `CNC(=O)c1cc(Oc2ccc(NC(=O)Nc3ccc(Cl)c(C(F)(F)F)c3)cc2)ccn1` [sorafenib] the “induction of MHCI molecules by IFN-γ” value [4, 12] was “enhanced the induction of MHCI molecules” and the “induction of the MHCII molecule HLA-DR by IFN-γ” value [4, 12] was “decreased the induction of the MHCII molecule HLA-DR”.

For `CCCS(=O)(=O)Nc1ccc(F)c(C(=O)c2c[nH]c3ncc(-c4ccc(Cl)cc4)cc23)c1F` [vemurafenib], the “time after the addition of IFN-γ at which the effect on CIITA mRNA was most pronounced” value [5] was 48 h, the “induction of MHCI molecules by IFN-γ” value [6] was “no effect” and the “induction of MHCII molecules by IFN-γ” value [6] was “no effect”. For the same molecule, the “induction of MHCI molecules by IFN-γ” value [7] was “no effect”, the “induction of MHCII molecules by IFN-γ” value [7] was “no effect” and the “induction of MHCI molecules by IFN-γ” value [8] was “no effect”. For the same molecule, the “induction of MHCII molecules by IFN-γ” value [8] was “no effect”.

B1: IFN-γ: a type II interferon, cytokine, potent inducer of MHC expression (protein, UniProt P01579 24-161, looked up)
Interferon gamma: QDPYVKEAENLKKYFNAGHSDVADNGTLFLGILKNWKEESDRKIMQSQIVSFYFKLFKNFKDDQSIQKSVETIKEDMNVKFFNSNKKKRDDFEKLTNYSVTDLNVQRKAIHELIQVMAELSPAAKTGKRKRSQMLFRG
In the case of B1, the “cell surface MHCI, MHCII and B2M protein levels” value [9] is reported as “increases in cell surface MHCI, MHCII and B2M protein levels”, the “fold increase of MHCI levels by IFN-γ” value [10] is reported as “around four” and the “fold increase of MHCI levels by IFN-γ” value [11] is reported as “around four”. The “MHCI cell surface expression” value ([4]; A375 cells treated with IFN-γ alone, flow cytometry) was “lead to an induction of MHCI cell surface expression”.
